Measured values taken from patent US20050070510A1, “Substituted tetracycline compounds as synergistic antifungal agents” (Paratek Pharmaceuticals, Inc., priority 2001, published 2005).

Tested on: COS-1 cells
Experiment: In vitro mammalian cytotoxicity assay (Resazurin)

Row | SMILES | In Vitro Cytotoxicity
1 | C#CCOC(=O)Nc1cc(N(C)C)c2c(c1O)C(=O)C1=C(O)[C@]3(C#N)C(=O)C(C(N)=O)=C(O)[C@@H](N(C)C)[C@]3(N)C[C@]1(N)C2 [SL] | ** (toxicities less than 25 μg/mL are represented by **)
2 | CN(C)[C@@H]1C(O)=C(C(N)=O)C(=O)[C@@]2(C#N)C(O)=C3C(=O)c4c(O)ccc(CCC5CCCCC5)c4C[C@@]3(N)C[C@@]12N [IX] | ** (toxicities less than 25 μg/mL are represented by **)
3 | CCc1cc(C(C)=O)c(O)c2c1C[C@@]1(N)C[C@@]3(N)[C@H](N(C)C)C(O)=C(C(N)=O)C(=O)[C@@]3(C#N)C(O)=C1C2=O [RJ] | ** (toxicities less than 25 μg/mL are represented by **)
4 | CN(C)[C@@H]1C(O)=C(C(N)=O)C(=O)[C@@]2(C#N)C(O)=C3C(=O)c4c(ccc(CC(=O)c5ccno5)c4O)C[C@@]3(N)C[C@@]12N [RF] | * (toxicities greater than >25 μg/ml are represented by *)
5 | CN(C)c1cc(C#CC(=O)O)c(O)c2c1C[C@@]1(N)C[C@@]3(N)[C@H](N(C)C)C(O)=C(C(N)=O)C(=O)[C@@]3(C#N)C(O)=C1C2=O [HZ] | * (toxicities greater than >25 μg/ml are represented by *)
6 | CCc1cc(C#CC2=CCCCC2)c(O)c2c1C[C@@]1(N)C[C@@]3(N)[C@H](N(C)C)C(O)=C(C(N)=O)C(=O)[C@@]3(C#N)C(O)=C1C2=O [KE] | ** (toxicities less than 25 μg/mL are represented by **)
7 | CN(C)[C@@H]1C(O)=C(C(N)=O)C(=O)[C@@]2(C#N)C(O)=C3C(=O)c4c(O)c(CN5C(=O)c6ccccc6C5=O)cc(-c5cccc([N+](=O)O)c5)c4C[C@@]3(N)C[C@@]12N [JQ] | ** (toxicities less than 25 μg/mL are represented by **)
8 | CN(C)[C@@H]1C(O)=C(C(N)=O)C(=O)[C@@]2(C#N)C(O)=C3C(=O)c4c(O)c(CN)cc(-c5cccc([N+](=O)O)c5)c4C[C@@]3(N)C[C@@]12N [JP] | * (toxicities greater than >25 μg/ml are represented by *)
9 | CCCCc1cc(CN)c(O)c2c1C[C@@]1(N)C[C@@]3(N)[C@H](N(C)C)C(O)=C(C(N)=O)C(=O)[C@@]3(C#N)C(O)=C1C2=O [KV] | * (toxicities greater than >25 μg/ml are represented by *)
10 | COc1ccc(CN(C)C)cc1-c1ccc(O)c2c1C[C@@]1(N)C[C@@]3(N)[C@H](N(C)C)C(O)=C(C(N)=O)C(=O)[C@@]3(C#N)C(O)=C1C2=O [IM] | * (toxicities greater than >25 μg/ml are represented by *)
11 | COC(=O)c1cc(NC(=O)c2ccno2)cc(-c2ccc(O)c3c2C[C@@]2(N)C[C@@]4(N)C(N(C)C)C(O)=C(C(N)=O)C(=O)[C@@]4(C#N)C(O)=C2C3=O)c1 (some centres unmarked) [RG] | * (toxicities greater than >25 μg/ml are represented by *)
12 | CN(C)[C@@H]1C(O)=C(C(N)=O)C(=O)[C@@]2(C#N)C(O)=C3C(=O)c4c(O)ccc(-c5ccc(CNc6cccnc6)cc5)c4C[C@@]3(N)C[C@@]12N [UO] | ** (toxicities less than 25 μg/mL are represented by **)
13 | CN(C)[C@@H]1C(O)=C(C(N)=O)C(=O)[C@@]2(C#N)C(O)=C3C(=O)c4c(O)ccc(-c5ccc(C(C)(C)C)cc5)c4C[C@@]3(N)C[C@@]12N [GK] | ** (toxicities less than 25 μg/mL are represented by **)
14 | CN(C)c1cc(-c2ccco2)c(O)c2c1C[C@@]1(N)C[C@@]3(N)[C@H](N(C)C)C(O)=C(C(N)=O)C(=O)[C@@]3(C#N)C(O)=C1C2=O [DZ] | ** (toxicities less than 25 μg/mL are represented by **)
15 | Cc1noc(C)c1S(=O)(=O)NCc1cc(N(C)C)c2c(c1O)C(=O)C1=C(O)[C@]3(C#N)C(=O)C(C(N)=O)=C(O)[C@@H](N(C)C)[C@]3(N)C[C@]1(N)C2 [TJ] | * (toxicities greater than >25 μg/ml are represented by *)
16 | CN(C)[C@@H]1C(O)=C(C(N)=O)C(=O)[C@@]2(C#N)C(O)=C3C(=O)c4c(O)ccc(-c5ccc(F)cc5)c4[C@H](N)[C@@]3(N)[C@H](O)[C@@]12N [CQ] | ** (toxicities less than 25 μg/mL are represented by **)
17 | CCC(CC)CCc1ccc(O)c2c1C[C@@]1(N)C[C@@]3(N)C(N(C)C)C(O)=C(C(N)=O)C(=O)[C@@]3(C#N)C(O)=C1C2=O (some centres unmarked) [QX] | ** (toxicities less than 25 μg/mL are represented by **)
18 | COc1cccc(C/C=C\c2ccc(O)c3c2C[C@@]2(N)C[C@@]4(N)[C@H](N(C)C)C(O)=C(C(N)=O)C(=O)[C@@]4(C#N)C(O)=C2C3=O)c1OC [HV] | ** (toxicities less than 25 μg/mL are represented by **)
19 | COc1ccc(CNCCc2ccccc2)cc1-c1ccc(O)c2c1C[C@@]1(N)C[C@@]3(N)[C@H](N(C)C)C(O)=C(C(N)=O)C(=O)[C@@]3(C#N)C(O)=C1C2=O [NH] | ** (toxicities less than 25 μg/mL are represented by **)
20 | CN(C)c1cc(/C=C/c2ccccc2)c(O)c2c1[C@H](N)[C@]1(N)C(=C(O)[C@]3(C#N)C(=O)C(C(N)=O)=C(O)[C@@H](N(C)C)[C@]3(N)[C@H]1O)C2=O [BH] | ** (toxicities less than 25 μg/mL are represented by **)
21 | CN(C)c1cc(NCc2ccc(C#N)cc2)c(O)c2c1C[C@@]1(N)C[C@@]3(N)[C@H](N(C)C)C(O)=C(C(N)=O)C(=O)[C@@]3(C#N)C(O)=C1C2=O [TU] | * (toxicities greater than >25 μg/ml are represented by *)

Row | SMILES | In Vitro Cytotoxicity
22 | CCc1cc(CN)c(O)c2c1C[C@@]1(N)C[C@@]3(N)[C@H](N(C)C)C(O)=C(C(N)=O)C(=O)[C@@]3(C#N)C(O)=C1C2=O [IZ] | * (toxicities greater than >25 μg/ml are represented by *)
23 | Cc1ccc(/C=C2\c3cccc(O)c3C(=O)C3=C(O)[C@]4(C#N)C(=O)C(C(N)=O)=C(O)[C@@H](N(C)C)[C@]4(O)[C@@H](O)[C@@]32N)cc1 [CY] | ** (toxicities less than 25 μg/mL are represented by **)
24 | CCCCCCc1ccc(O)c2c1C[C@@]1(N)C[C@@]3(N)[C@H](N(C)C)C(O)=C(C(N)=O)C(=O)[C@@]3(C#N)C(O)=C1C2=O [JE] | ** (toxicities less than 25 μg/mL are represented by **)
25 | CC(C)CNCc1ccc2c(c1O)C(=O)C1=C(O)[C@]3(C#N)C(=O)C(C(N)=O)=C(O)[C@@H](N(C)C)[C@]3(N)[C@@H](O)[C@]1(N)[C@H]2N [RQ] | * (toxicities greater than >25 μg/ml are represented by *)
26 | CN(C)[C@@H]1C(O)=C(C(N)=O)C(=O)[C@@]2(C#N)C(O)=C3C(=O)c4c(O)c(CNCC(C)(C)C)cc(CNCC(C)(C)C)c4C[C@@]3(N)C[C@@]12N [TG] | * (toxicities greater than >25 μg/ml are represented by *)
27 | CN(C)c1cc(-c2ccc(Cl)cc2)c(O)c2c1C[C@@]1(N)C[C@@]3(N)[C@H](N(C)C)C(O)=C(C(N)=O)C(=O)[C@@]3(C#N)C(O)=C1C2=O [EQ] | ** (toxicities less than 25 μg/mL are represented by **)
28 | CN(C)[C@@H]1C(O)=C(C(N)=O)C(=O)[C@@]2(C#N)C(O)=C3C(=O)c4c(O)c(C(C)(C)C)cc(C(=O)Cl)c4C[C@@]3(N)C[C@@]12N [QA] | ** (toxicities less than 25 μg/mL are represented by **)
29 | CN(C)[C@@H]1C(O)=C(C(N)=O)C(=O)[C@@]2(C#N)C(O)=C3C(=O)c4c(ccc(C(C)(C)CCC[N+](=O)[O-])c4O)[C@H](N)[C@@]3(N)[C@H](O)[C@@]12N [BF] | ** (toxicities less than 25 μg/mL are represented by **)
30 | CN(C)c1ccc(-c2cc([N+](=O)O)c(O)c3c2C[C@@]2(N)C[C@@]4(N)C(N(C)C)C(O)=C(C(N)=O)C(=O)[C@@]4(C#N)C(O)=C2C3=O)cc1 (some centres unmarked) [RE] | ** (toxicities less than 25 μg/mL are represented by **)
31 | CN(C)[C@@H]1C(O)=C(C(N)=O)C(=O)[C@@]2(C#N)C(O)=C3C(=O)c4c(ccc(-c5ccc(F)cc5)c4O)[C@H](N)[C@@]3(N)[C@H](O)[C@@]12N [BR] | ** (toxicities less than 25 μg/mL are represented by **)
32 | CN(C)[C@@H]1C(O)=C(C(N)=O)C(=O)[C@@]2(C#N)C(O)=C3C(=O)c4c(O)ccc(OC5=CC(c6cccc([N+](=O)O)c6)=CC5)c4C[C@@]3(N)C[C@@]12N [EC] | * (toxicities greater than >25 μg/ml are represented by *)
33 | CN(C)c1cc(-c2ccc(C(N)=O)cc2)c(O)c2c1C[C@@]1(N)C[C@@]3(N)[C@H](N(C)C)C(O)=C(C(N)=O)C(=O)[C@@]3(C#N)C(O)=C1C2=O [ET] | ** (toxicities less than 25 μg/mL are represented by **)
34 | CN(C)[C@@H]1C(O)=C(C(N)=O)C(=O)[C@@]2(C#N)C(O)=C3C(=O)c4c(O)c(CNC(=O)C5CC5)cc(-c5ccc(C(C)(C)C)cc5)c4C[C@@]3(N)C[C@@]12N [RM] | ** (toxicities less than 25 μg/mL are represented by **)
35 | COc1ccc(CNCC(C)C)cc1-c1ccc(O)c2c1C[C@@]1(N)C[C@@]3(N)[C@H](N(C)C)C(O)=C(C(N)=O)C(=O)[C@@]3(C#N)C(O)=C1C2=O [LW] | * (toxicities greater than >25 μg/ml are represented by *)
36 | CCCC#Cc1cc(N(C)C)c2c(c1O)C(=O)C1=C(O)[C@]3(C#N)C(=O)C(C(N)=O)=C(O)[C@@H](N(C)C)[C@]3(N)C[C@]1(N)C2 [KX] | ** (toxicities less than 25 μg/mL are represented by **)
37 | CN(C)c1cc(CNCc2ccccc2)c(O)c2c1C[C@@]1(N)C[C@@]3(N)[C@H](N(C)C)C(O)=C(C(N)=O)C(=O)[C@@]3(C#N)C(O)=C1C2=O [TH] | * (toxicities greater than >25 μg/ml are represented by *)
38 | CN(C)[C@@H]1C(O)=C(C(N)=O)C(=O)[C@@]2(C#N)C(O)=C3C(=O)c4c(ccc(N(Cc5ccccc5)Cc5ccccc5)c4O)[C@H](N)[C@@]3(N)[C@H](O)[C@@]12N [BP] | ** (toxicities less than 25 μg/mL are represented by **)
39 | CN(C)c1cc(NCc2ccccc2)c(O)c2c1C[C@@]1(N)C[C@@]3(N)[C@H](N(C)C)C(O)=C(C(N)=O)C(=O)[C@@]3(C#N)C(O)=C1C2=O [LO] | ** (toxicities less than 25 μg/mL are represented by **)
40 | CN(C)[C@@H]1C(O)=C(C(N)=O)C(=O)[C@@]2(C#N)C(O)=C3C(=O)c4c(ccc(-c5ccc(C(=O)F)c6ccccc56)c4O)[C@H](N)[C@@]3(N)[C@H](O)[C@@]12N [PO] | ** (toxicities less than 25 μg/mL are represented by **)
41 | CN(C)c1cc(CNC(=O)Oc2ccc(Br)cc2)c(O)c2c1C[C@@]1(N)C[C@@]3(N)[C@H](N(C)C)C(O)=C(C(N)=O)C(=O)[C@@]3(C#N)C(O)=C1C2=O [MV] | ** (toxicities less than 25 μg/mL are represented by **)
